Test results reported in ChEMBL document CHEMBL1201862, “PubChem BioAssay data set” (2004).
Calls of active or inactive are those of the source.

What was measured:
[1] = target: Eukaryotic translation initiation factor 4E (Mus musculus, UniProt P63073); test: eIF4E–eIF4G protein interaction inhibitors, dose response, biochemical, TR-FRET (AID 855); format: functional;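 further: potency for disrupting eIF4E binding to eIF4GI seen as loss of FRET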
Prothrombin [2] = target: Prothrombin (Bos taurus, UniProt P00735); test: thrombin inhibition, dose response, biochemical, fluorescence polarization, uHTS hits (AID 602369); format: functional
[3] = target: 72 kDa type IV collagenase (Homo sapiens, UniProt P08253); test: Dose Response validation of uHTS RPN11 inhibitor hits using a MMP-2 Fluorescence assay.; format: functional
Chain of 72 kDa type IV collagenase (P08253 whole entry): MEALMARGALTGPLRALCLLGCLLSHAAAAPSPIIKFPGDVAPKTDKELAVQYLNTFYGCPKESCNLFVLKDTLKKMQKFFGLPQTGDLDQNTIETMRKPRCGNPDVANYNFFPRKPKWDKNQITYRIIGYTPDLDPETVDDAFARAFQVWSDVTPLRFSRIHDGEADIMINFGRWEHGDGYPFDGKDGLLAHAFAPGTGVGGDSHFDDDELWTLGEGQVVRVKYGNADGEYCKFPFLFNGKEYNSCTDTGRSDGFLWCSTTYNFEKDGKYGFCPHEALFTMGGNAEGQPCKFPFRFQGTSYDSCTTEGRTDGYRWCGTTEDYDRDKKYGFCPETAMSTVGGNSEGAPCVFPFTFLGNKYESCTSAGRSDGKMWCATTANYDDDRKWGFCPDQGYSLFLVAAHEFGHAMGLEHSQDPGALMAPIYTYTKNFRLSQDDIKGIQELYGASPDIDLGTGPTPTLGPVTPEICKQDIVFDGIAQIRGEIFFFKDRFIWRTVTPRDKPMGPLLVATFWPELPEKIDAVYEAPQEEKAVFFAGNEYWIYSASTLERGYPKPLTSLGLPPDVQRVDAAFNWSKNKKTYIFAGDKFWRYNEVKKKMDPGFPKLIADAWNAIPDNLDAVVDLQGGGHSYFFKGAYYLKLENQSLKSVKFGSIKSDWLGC

[4] = target: 26S proteasome non-ATPase regulatory subunit 14 (Homo sapiens, UniProt O00487); test: inhibition of proteasome subunit RPN11 – biochemical, fluorescence polarization, uHTS hits, confirmation (AID 602368); format: functional
Chain of 26S proteasome non-ATPase regulatory subunit 14 (O00487 whole entry, the tested form may be a part): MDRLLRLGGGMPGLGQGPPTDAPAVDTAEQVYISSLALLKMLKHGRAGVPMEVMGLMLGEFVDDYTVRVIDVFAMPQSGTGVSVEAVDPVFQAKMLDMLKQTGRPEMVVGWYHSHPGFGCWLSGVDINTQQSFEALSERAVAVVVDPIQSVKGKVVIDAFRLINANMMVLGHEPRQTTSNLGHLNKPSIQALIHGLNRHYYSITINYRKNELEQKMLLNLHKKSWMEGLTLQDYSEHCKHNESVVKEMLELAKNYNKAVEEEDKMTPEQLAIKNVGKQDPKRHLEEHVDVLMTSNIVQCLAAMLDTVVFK

[5] = target: T1, RNA-binding protein pos-1 (Caenorhabditis elegans, UniProt G5EF15); test: inhibitors of POS-1/mex-3 RNA binding, dose response, biochemical, fluorescence polarization (AID 1964);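 further: purified POS-1 fused to maltose binding protein made in E. coli; potency of compounds blocking POS-1 binding to fluorescent RNA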
T1 sequence (G5EF15 whole entry): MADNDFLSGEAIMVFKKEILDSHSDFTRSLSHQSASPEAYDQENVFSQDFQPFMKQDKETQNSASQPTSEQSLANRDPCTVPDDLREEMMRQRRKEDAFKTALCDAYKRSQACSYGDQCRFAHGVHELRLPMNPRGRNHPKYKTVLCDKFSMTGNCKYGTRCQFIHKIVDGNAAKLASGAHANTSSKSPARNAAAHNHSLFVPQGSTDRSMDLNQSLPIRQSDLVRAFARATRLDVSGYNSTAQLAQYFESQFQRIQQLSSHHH

[6] = target: T2, Zinc finger protein mex-5 (Caenorhabditis elegans, UniProt Q9XUB2); test: MEX-5/TCR-2 RNA interaction inhibitors, dose response, biochemical, C. elegans, fluorescence polarization (AID 1960)
T2 sequence (Q9XUB2 whole entry): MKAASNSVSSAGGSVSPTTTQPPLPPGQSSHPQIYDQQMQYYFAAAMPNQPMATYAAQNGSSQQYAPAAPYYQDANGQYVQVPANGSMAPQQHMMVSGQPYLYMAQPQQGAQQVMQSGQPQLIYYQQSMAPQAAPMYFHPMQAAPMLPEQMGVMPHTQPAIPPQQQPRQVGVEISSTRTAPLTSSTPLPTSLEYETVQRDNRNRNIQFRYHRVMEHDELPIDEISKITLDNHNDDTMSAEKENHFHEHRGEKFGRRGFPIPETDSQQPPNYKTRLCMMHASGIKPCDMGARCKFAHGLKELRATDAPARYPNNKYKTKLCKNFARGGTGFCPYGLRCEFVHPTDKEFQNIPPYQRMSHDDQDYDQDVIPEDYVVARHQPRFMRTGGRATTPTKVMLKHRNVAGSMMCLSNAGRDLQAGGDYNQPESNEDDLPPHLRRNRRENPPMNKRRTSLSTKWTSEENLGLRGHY

Aspartyl aminopeptidase = target: T3, Aspartyl aminopeptidase (Plasmodium falciparum 3D7, UniProt Q8I2J3)
T3 sequence (Q8I2J3 whole entry): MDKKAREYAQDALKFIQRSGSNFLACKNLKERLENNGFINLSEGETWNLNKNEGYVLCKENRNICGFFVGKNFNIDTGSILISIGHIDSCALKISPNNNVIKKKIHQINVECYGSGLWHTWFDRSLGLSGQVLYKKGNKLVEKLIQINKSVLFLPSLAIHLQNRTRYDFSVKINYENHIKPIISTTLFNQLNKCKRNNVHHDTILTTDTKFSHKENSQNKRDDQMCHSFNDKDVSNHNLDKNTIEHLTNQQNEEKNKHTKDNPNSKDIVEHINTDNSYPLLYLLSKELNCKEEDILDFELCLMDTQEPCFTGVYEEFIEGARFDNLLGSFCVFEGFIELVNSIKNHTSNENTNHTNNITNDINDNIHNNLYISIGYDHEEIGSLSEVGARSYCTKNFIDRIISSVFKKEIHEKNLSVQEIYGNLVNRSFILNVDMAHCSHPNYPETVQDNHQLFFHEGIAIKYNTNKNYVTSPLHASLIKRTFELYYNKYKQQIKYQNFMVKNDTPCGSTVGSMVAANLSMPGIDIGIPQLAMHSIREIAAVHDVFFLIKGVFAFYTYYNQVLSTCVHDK

Procathepsin L = Procathepsin L (Homo sapiens, UniProt P07711)
Chain of Procathepsin L (P07711 whole entry): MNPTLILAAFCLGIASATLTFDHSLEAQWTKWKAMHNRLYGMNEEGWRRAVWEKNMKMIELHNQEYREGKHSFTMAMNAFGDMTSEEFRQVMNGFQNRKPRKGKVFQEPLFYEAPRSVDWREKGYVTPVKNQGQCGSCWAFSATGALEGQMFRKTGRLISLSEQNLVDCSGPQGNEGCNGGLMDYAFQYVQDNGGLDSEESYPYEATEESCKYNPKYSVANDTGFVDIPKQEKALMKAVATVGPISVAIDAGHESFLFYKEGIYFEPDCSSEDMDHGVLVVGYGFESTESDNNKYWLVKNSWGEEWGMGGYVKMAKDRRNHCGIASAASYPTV

Streptococcus = test: Group A Streptococcus viability loss, dose response, counter-screen for streptokinase expression inhibitor project, luminescence, BacTiterGlo (AID 1915); format: functional, organism-based;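 further: potency for reduction of bacterial viability or growth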
Streptokinase A = target: T4, Streptokinase A (Streptococcus pyogenes serotype M1, UniProt P10520); test: S. pyogenes streptokinase expression inhibitors, potency, dose response, plasminogen activation absorbance, OD405 (AID 1914); format: functional, Streptococcus pyogenes M1 GAS;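 further: secreted streptokinase activity via plasminogen activation per viability signal from cell pellet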
T4 sequence (P10520 whole entry): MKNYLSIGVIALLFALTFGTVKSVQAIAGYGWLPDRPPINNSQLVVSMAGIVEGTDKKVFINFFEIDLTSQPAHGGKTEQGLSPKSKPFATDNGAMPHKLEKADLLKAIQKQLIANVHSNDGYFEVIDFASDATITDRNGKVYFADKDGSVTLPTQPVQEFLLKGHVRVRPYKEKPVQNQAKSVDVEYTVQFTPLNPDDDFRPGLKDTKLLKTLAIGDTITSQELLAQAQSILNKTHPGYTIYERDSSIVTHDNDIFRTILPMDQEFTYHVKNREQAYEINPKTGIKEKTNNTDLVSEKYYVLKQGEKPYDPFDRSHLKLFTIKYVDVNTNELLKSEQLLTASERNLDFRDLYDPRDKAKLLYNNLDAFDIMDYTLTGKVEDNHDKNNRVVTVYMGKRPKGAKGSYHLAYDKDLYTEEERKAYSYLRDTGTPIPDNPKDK

Prothrombin [7] = target: Prothrombin (Homo sapiens, UniProt P00734); test: Thrombin 1536 HTS Dose Response Confirmation. [Related pubchem assays: 1046 (Thrombin 1536 HTS; hits were confirmed in this assay)]; format: functional
[8] = test system: Streptococcus sp. 'group A'; test: growth inhibition of control SK(-) GAS strain, dose response, counter-screen for streptokinase expression inhibitor project, luminescence, kanamycin, BacTiterGlo, confirmation (AID 1900); format: functional, organism-based
[9] = cytotoxicity in HPDE-C7 cells, cell-based, fluorescence, HTS (AID 430); format: functional; details: Homo sapiens
[10] = cytotoxicity in KRAS-transformed pancreatic duct cells, primary screen, cell-based, fluorescence, HTS (AID 431); format: functional; details: Homo sapiens;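 further: cell line used: HPDE-C7K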
[11] = target: T5, High affinity choline transporter 1 (Homo sapiens, UniProt Q9GZV3); test: CHT inhibitors, dose response, cell-based, 5-point CRC, membrane potential dye (AID 504840); format: functional
T5 sequence (Q9GZV3 whole entry): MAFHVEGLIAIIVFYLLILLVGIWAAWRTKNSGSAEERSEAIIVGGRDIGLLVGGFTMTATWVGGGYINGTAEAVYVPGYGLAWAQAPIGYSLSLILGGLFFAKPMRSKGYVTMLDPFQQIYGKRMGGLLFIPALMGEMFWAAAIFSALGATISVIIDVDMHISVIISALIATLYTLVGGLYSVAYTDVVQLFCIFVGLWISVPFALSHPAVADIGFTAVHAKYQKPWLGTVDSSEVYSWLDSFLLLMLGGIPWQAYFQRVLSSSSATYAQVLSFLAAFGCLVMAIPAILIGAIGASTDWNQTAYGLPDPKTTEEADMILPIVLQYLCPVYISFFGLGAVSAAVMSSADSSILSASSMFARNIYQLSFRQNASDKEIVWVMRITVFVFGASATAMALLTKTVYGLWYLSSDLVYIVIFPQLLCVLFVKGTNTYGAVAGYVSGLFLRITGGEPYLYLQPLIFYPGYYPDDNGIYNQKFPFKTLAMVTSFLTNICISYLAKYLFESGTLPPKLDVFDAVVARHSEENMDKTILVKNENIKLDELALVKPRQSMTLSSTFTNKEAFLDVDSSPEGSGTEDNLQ

[12] = inhibitors of Vif binding to APOBEC3G peptide, primary screen, biochemical, TR-FRET, GST-Vif 1-94, biotin-A3G peptide, dose response retest (AID 1117319); format: functional;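 further: TR-FRET signal of purified GST-Vif binding a biotinylated A3G peptide; inhibitors lower the FRET signal by blocking Vif and A3G binding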
[13] = inhibitors of PGC1a acetylation in cells, dose response, cell-based, cherry-picked samples (AID 720514); format: functional;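 further: potency may reflect raised or lowered acetylation signal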
[14] = target: T6, Carboxy-terminal domain RNA polymerase II polypeptide A small phosphatase 1 (Homo sapiens, UniProt Q9GZU7); test: inhibitors of CTDSP1, concentration-response testing, biochemical assay, absorbance-based, actives from ultra-high-throughput screening (AID 540297); format: functional
T6 sequence (Q9GZU7 whole entry): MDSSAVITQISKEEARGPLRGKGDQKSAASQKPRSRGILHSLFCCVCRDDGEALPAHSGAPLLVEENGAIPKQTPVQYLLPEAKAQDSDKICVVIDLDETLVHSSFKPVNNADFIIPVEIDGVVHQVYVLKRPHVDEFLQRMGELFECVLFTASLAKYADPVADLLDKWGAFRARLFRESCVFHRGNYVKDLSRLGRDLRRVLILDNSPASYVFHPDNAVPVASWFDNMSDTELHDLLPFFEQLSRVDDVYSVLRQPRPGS

Chain of Eukaryotic translation initiation factor 4E (P63073 whole entry): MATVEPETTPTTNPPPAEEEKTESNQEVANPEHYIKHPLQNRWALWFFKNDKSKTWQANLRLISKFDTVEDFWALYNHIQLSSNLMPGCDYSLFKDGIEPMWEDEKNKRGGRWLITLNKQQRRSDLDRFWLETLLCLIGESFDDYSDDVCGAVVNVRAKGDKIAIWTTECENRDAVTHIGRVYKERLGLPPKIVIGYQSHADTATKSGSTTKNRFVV

SMILES: CC(=O)Nc1ccc(S(=O)(=O)NCCSc2ccccn2)cc1
- IC50 [1]: > 64 µM (inactive)

SMILES: Cc1c(OCC(N)=O)ccc2c(-c3ccccc3)cc(=O)oc12
- IC50 (Prothrombin [2]): 78.1 µM (active)
- IC50 [3]: 57.2 µM (active)
- IC50 [4]: 57.7 µM (active)

SMILES: Cc1ccc(/C=C(\C#N)C(=O)Nc2c(C)cccc2C)s1
- EC50 [5]: > 300 µM (not active)
- IC50 (Prothrombin [2]): 23.5 µM (active)
- EC50 [6]: > 300 µM (not active)
- IC50 [3]: > 100 µM (inactive)
- IC50 [4]: 13.5 µM (active)

SMILES: Cc1nc2ccccn2c1C(=O)NNC(=O)Nc1ccccc1
- IC50 (Aspartyl aminopeptidase): 1.05 µM (active)
- IC50 (Procathepsin L): > 59.6 µM (not active)

SMILES: O=C(Cn1cn[n+](CC(=O)c2ccc(Cl)cc2Cl)c1)c1ccc([N+](=O)[O-])cc1
- EC50 (Streptococcus): > 150 µM (not active)
- EC50 (Streptokinase A): 21.4 µM (active)
- IC50 (Prothrombin [7]): 1.7 µM (active)
- EC50 [8]: 11.3 µM (active)

SMILES: Cc1cc(C)nc(Nc2ccccc2Br)n1
- IC50 (Prothrombin [7]): > 50 µM (not active)

SMILES: CCOCCCn1c(C)nc2c(c1=O)c1nc3ccccc3nc1n2CCC1=CCCCC1
- EC50 [9]: > 20 µM (not active)
- EC50 [10]: > 20 µM (not active)

SMILES: Cc1cc(C)nc(SCc2cc(=O)c(OC(=O)c3ccc(Br)o3)co2)n1
- IC50 [11]: 14.5 µM (active)

SMILES: Cc1nnc(NNS(=O)(=O)c2ccc(Cl)cc2)[nH]c1=O
- IC50 (Aspartyl aminopeptidase): 1.57 µM (active)
- IC50 (Procathepsin L): > 59.6 µM (not active)

SMILES: C=CCNc1nc2ccccc2nc1NS(=O)(=O)c1ccc(Br)cc1
- IC50 [11]: 13.2 µM (active)

SMILES: COc1cccc(-n2c(Cc3cc(O)nc(O)n3)nnc2SCC(=O)NC2CCCC2)c1
- IC50 [12]: > 100 µM (active)

SMILES: COc1ccc(C(=O)N2C(=S)NC(=O)/C2=C\c2ccc(C)cc2)cc1
- IC50 (Prothrombin [2]): 37.8 µM (active)
- IC50 [3]: 23.8 µM (active)
- IC50 [4]: 22.5 µM (active)

SMILES: COC(=O)c1ccccc1NC(=O)c1cc(-c2cccs2)on1
- EC50 [9]: > 20 µM (not active)
- EC50 [10]: > 20 µM (not active)

SMILES: COc1ccc(NC(C)(C)c2nnnn2-c2c(C)cccc2C)cc1
- IC50 [11]: 25.1 µM (active)

SMILES: Cc1c(NS(=O)(=O)c2ccc(Cl)c(C(=O)OCC(=O)NCc3ccco3)c2)c(=O)n(-c2ccccc2)n1C
- IC50 (Prothrombin [7]): > 50 µM (not active)

SMILES: Cc1noc(C)c1CSc1nnc(-c2cccnc2)n1C1CCCCC1C (stereo unspecified)
- AC50 [13]: 28.4 µM (active)

SMILES: CC1CN(C(=O)CCC(=O)NC(C)c2ccccc2)c2cc(Cl)ccc2O1 (stereo unspecified)
- IC50 [11]: 15.1 µM (active)

SMILES: CN(CC(=O)Nc1ccc(Cl)cc1)C(=O)CCc1nc(O)c2c3c(sc2n1)CCCC3
- IC50 (Prothrombin [2]): 26.4 µM (active)
- IC50 [3]: > 100 µM (inactive)
- IC50 [4]: 30.7 µM (active)

SMILES: CCc1ccc(S(=O)(=O)NC(CC(=O)O)c2ccccc2)cc1 (stereo unspecified)
- EC50 [9]: > 20 µM (not active)
- EC50 [10]: > 20 µM (not active)

SMILES: COc1c(C)cc(C(=O)C2CCCN(S(=O)(=O)c3c(C)noc3C)C2)cc1C (stereo unspecified)
- IC50 (Prothrombin [7]): > 50 µM (not active)

SMILES: Cc1c(-n2cccc2C=O)cccc1[N+](=O)[O-]
- IC50 [1]: 50 µM (inactive)

SMILES: O=S(=O)(Nn1cnnc1)c1ccccc1
- IC50 (Aspartyl aminopeptidase): 3.81 µM (active)
- IC50 (Procathepsin L): > 59.6 µM (not active)

SMILES: Cc1ccccc1CCNCc1cc2cccc(C)c2nc1O
- IC50 [11]: 10 µM (active)

SMILES: O=C(Nc1ccc(-c2nc3ccccc3s2)c(O)c1)C1=COCCO1
- IC50 [14]: 3.39 µM (active)
- IC50 (Prothrombin [2]): 91.4 µM (active)
- IC50 [3]: > 100 µM (inactive)
- IC50 [4]: 22.5 µM (active)

SMILES: O=C(Cc1ccc(Cl)cc1)OCc1nnc(-c2ccccc2)o1
- IC50 [1]: 50 µM (inactive)

SMILES: O=C(Cc1ccccc1)OCn1nnc2ccccc2c1=O
- IC50 [1]: > 64 µM (inactive)

SMILES: CCOC(=O)c1ccc(/N=C/c2nc(-c3ccccc3)oc2OC(C)=O)cc1
- IC50 (Prothrombin [7]): 0.526 µM (active)

SMILES: COc1cc(CN2C[C@@H]3N[C@H](C2)[C@@H]3c2ccc(-c3ccccc3C)cc2)cc(OC)c1
- AC50 [13]: 6.84 µM (active)

SMILES: C/C(=N/NC(=O)c1cc(Cl)ccc1O)C12CC3CC(CC(C3)C1)C2
- IC50 [11]: 8.58 µM (active)
